Reference: ChEMBL document CHEMBL5614376, “Discovery of MT-1207: A Novel, Potent Multitarget Inhibitor as a Promising Clinical Candidate for the Treatment of Hypertension” (J Med Chem, 2024)
The source made the active and inactive calls. No cut-off for these calls is given here.

Tests used:
[1] = Cmax in female Sprague-Dawley rat at 100 mg/kg, po qd treated for 13 weeks consecutively measured after recovery period on day 91 by UP/LC/MS/MS analysis; type: ADME, organism-based; conditions: in vivo, time 91 day
[2] = Metabolic stability in human liver microsomes assessed as drug metabolism at 10 umol/L incubated upto 120 mins in presence of NADPH by LC-MS/MS analysis; type: ADME, Microsome; conditions: 2 h, 10 µM, dose 10 µmol/L
[3] = Plasma protein binding in Beagle dog at 10 uM incubated for 30 mins; type: ADME, cell-free, Canis lupus familiaris; conditions: read-out: PPB (converted)
Rattus norvegicus [4] = test: Effect on postural hypotension in Sprague-Dawley rat assessed as change in systolic blood pressure at 5 mg/kg, po treated for >30 mins followed by induction of postural hypotension measured immediately after postural change (reference value: 131 +/- 9 mmHg); type: functional; conditions: 0.5 h
[5] = Toxicity in Sprague-Dawley rat assessed as notable drug-related change at 10 to 100 mg/kg, po qd treated for 13 weeks consecutively measured after 4 week recovery period; type: organism-based; conditions: in vivo, 2856 h, dose 10-100 mg/kg, time 17 weeks
[6] = Cmax in female Sprague-Dawley rat at 10 mg/kg, po qd treated for 13 weeks consecutively measured after recovery period on day 91 by UP/LC/MS/MS analysis; type: ADME, organism-based; conditions: in vivo, time 91 day
[7] = Tmax in male Sprague-Dawley rat at 30 mg/kg, po measured on day 1 by UP/LC/MS/MS analysis; type: ADME, organism-based; conditions: in vivo, time 1 day
Rattus norvegicus [8] = test: Effect on postural hypotension in Sprague-Dawley rat assessed as change in systolic blood pressure at 10 mg/kg, po treated for >30 mins followed by induction of postural hypotension measured 3 secs after postural change (reference value: 124 +/- 10 mmHg); type: functional; conditions: time > 30.05 min, 0.5008 h
[9] = AUC (0 to t) in Sprague-Dawley rat at 1 mg/kg, iv measured for 24 hrs by UPLC/MS/MS analysis; type: ADME, organism-based; conditions: in vivo
Rattus norvegicus [10] = test: Effect on postural hypotension in Sprague-Dawley rat assessed as change in systolic blood pressure at 5 mg/kg, po treated for >30 mins followed by induction of postural hypotension measured 5 secs after postural change (reference value: 126 +/- 12 mmHg); type: functional; conditions: time > 30.08 min, 0.5013 h
Rattus norvegicus [11] = test: Effect on postural hypotension in Sprague-Dawley rat assessed as change in systolic blood pressure at 10 mg/kg, po treated for >30 mins followed by induction of postural hypotension measured 60 secs after postural change (reference value: 127 +/- 10 mmHg); type: functional; conditions: time > 31 min
[12] = Oral bioavailability in Sprague-Dawley rat at 3 mg/kg measured for 24 hrs by UPLC/MS/MS analysis; type: ADME, organism-based; conditions: in vivo
[13] = Toxicity in Sprague-Dawley rat assessed as drug tolerance at 10 to 100 mg/kg, po qd treated for 13 weeks; type: organism-based; conditions: in vivo, 2184 h, dose 10-100 mg/kg
[14] = Cmax in female Sprague-Dawley rat at 100 mg/kg, po measured on day 1 by UP/LC/MS/MS analysis; type: ADME, organism-based; conditions: in vivo, time 1 day
Rattus norvegicus [15] = test: Antihypertensive activity in 2K2C renovascular hypertensive Sprague-Dawley rat model assessed as decrease in diastolic blood pressure at 10 mg/kg, po measured after 9 weeks; type: functional, organism-based
[16] = Acute toxicity in Sprague-Dawley rat with single oral administration measured for 14 days; conditions: in vivo, time 14 day
[17] = Cmax in male Sprague-Dawley rat at 10 mg/kg, po qd treated for 13 weeks consecutively measured after recovery period on day 91 by UP/LC/MS/MS analysis; type: ADME, organism-based; conditions: in vivo, time 91 day
[18] = Cmax in male Sprague-Dawley rat at 100 mg/kg, po measured on day 1 by UP/LC/MS/MS analysis; type: ADME, organism-based; conditions: in vivo, time 1 day
[19] = Metabolic stability in rat liver microsomes assessed as compound remaining at 10 umol/L incubated upto 120 mins in presence of NADPH by LC-MS/MS analysis; type: ADME, Microsome; conditions: dose 10 µmol/L, read-out: Stability
Rattus norvegicus [20] = test: Effect on postural hypotension in Sprague-Dawley rat assessed as change in systolic blood pressure at 10 mg/kg, po treated for >30 mins followed by induction of postural hypotension measured 10 secs after postural change (reference value: 127 +/- 12 mmHg); type: functional; conditions: time > 30.17 min, 0.5028 h
[21] = Toxicity in male Sprague-Dawley rat assessed as reduction in body weight at 30 mg/kg, po qd treated for 11 days consecutively; type: organism-based; set-up: scale not given: the % may be the effect or the level left; conditions: in vivo, 264 h, time 11 day
[22] = AUC (0 to t) in female Sprague-Dawley rat at 10 mg/kg, po qd treated for 13 weeks consecutively measured after recovery period on day 91 by UP/LC/MS/MS analysis; type: ADME, organism-based; conditions: in vivo, time 91 day
[23] = AUC (0 to t) in female Sprague-Dawley rat at 10 mg/kg, po measured on day 1 by UP/LC/MS/MS analysis; type: ADME, organism-based; conditions: in vivo, time 1 day
[24] = Metabolic stability in rat liver microsomes assessed as drug metabolism at 10 umol/L incubated upto 120 mins in presence of NADPH by LC-MS/MS analysis; type: ADME, Microsome; conditions: 2 h, 10 µM, dose 10 µmol/L
[25] = Plasma protein binding in Sprague-Dawley rat at 1 uM incubated for 30 mins; type: ADME, cell-free; conditions: read-out: PPB (converted)
Rattus norvegicus [26] = test: Effect on serum urea level in 2K2C renovascular hypertensive Sprague-Dawley rat model at 10 mg/kg, po measured after 9 weeks by biochemical analysis; type: functional, organism-based
Rattus norvegicus [27] = test: Effect on postural hypotension in Sprague-Dawley rat assessed as change in systolic blood pressure at 2.5 mg/kg, po treated for >30 mins followed by induction of postural hypotension measured 10 secs after postural change (reference value: 127 +/- 12 mmHg); type: functional; conditions: time > 30.17 min, 0.5028 h
[28] = AUC (0 to t) in male Sprague-Dawley rat at 10 mg/kg, po measured on day 1 by UP/LC/MS/MS analysis; type: ADME, organism-based; conditions: in vivo, time 1 day
Rattus norvegicus [29] = test: Effect on heart rate in 2K2C renovascular hypertensive Sprague-Dawley rat model at 10 mg/kg, po measured after 9 weeks; type: functional, organism-based
[30] = Tmax in Sprague-Dawley rat at 9 mg/kg, po measured for 24 hrs by UPLC/MS/MS analysis; type: ADME, organism-based; conditions: in vivo
[31] = Apparent volume of distribution during terminal phase in Sprague-Dawley rat at 3 mg/kg, po measured for 24 hrs by UPLC/MS/MS analysis; type: ADME, organism-based; conditions: in vivo, read-out: Vz/F
[32] = Tmax in male Sprague-Dawley rat at 30 mg/kg, po qd treated for 13 weeks consecutively measured after recovery period on day 91 by UP/LC/MS/MS analysis; type: ADME, organism-based; conditions: in vivo, time 91 day
[33] = Acute toxicity in Sprague-Dawley rat assessed as drug tolerance at 250 to 1000 mg/kg, po single administration measured for 14 days; type: organism-based; conditions: in vivo, 336 h, dose 250-1000 mg/kg, time 14 day
[34] = Cmax in male Sprague-Dawley rat at 30 mg/kg, po measured on day 1 by UP/LC/MS/MS analysis; type: ADME, organism-based; conditions: in vivo, time 1 day
[35] = Half life in Sprague-Dawley rat at 9 mg/kg, po measured for 24 hrs by UPLC/MS/MS analysis; type: ADME, organism-based; conditions: in vivo

For Cl.c1ccc2c(c1)nnn2CCCCN1CCN(c2nsc3ccccc23)CC1, the Cmax [1] was 0.745 µg/mL, the Drug metabolism [2] was “Metabolite_Detected” and the fraction unbound at 0.5 h, 10 µM [3] was 0.007. For the same molecule, the Activity (Rattus norvegicus [4]) was 89 mmHg, the Activity [5] was “Non-Toxic” and the Cmax [6] was 0.14 µg/mL. It also gave a Tmax [7] of 1 h, an Activity (Rattus norvegicus [8]) of 81 mmHg and an AUC(0-t) at 24 h [9] of 0.44 µg·h/mL. It also gave an Activity (Rattus norvegicus [10]) of 79 mmHg, an Activity (Rattus norvegicus [11]) of 85 mmHg and a bioavailability [12] of 31.9%. The Activity [13] was “Non-Toxic”, the Cmax [14] was 1.08 µg/mL and the Activity (Rattus norvegicus [15]) was “Active”. For the same molecule, the MTD at 336 h [16] was > 1000 mg/kg, the Cmax [17] was 0.0362 µg/mL and the Cmax [18] was 0.347 µg/mL. For the same molecule, the remaining at 2 h, 10 µM [19] was 21.1%, the Activity (Rattus norvegicus [20]) was 84 mmHg and the Activity [21] was ~ 3.3%. For the same molecule, the AUC(0-t) at 2184 h [22] was 0.439 µg·h/mL, the AUC(0-t) at 24 h [23] was 0.344 µg·h/mL and the Drug metabolism [24] was “Metabolite_Detected”. For the same molecule, the fraction unbound at 0.5 h, 1 µM [25] was 0.019, the Activity (Rattus norvegicus [26]) was “Active” and the Activity (Rattus norvegicus [27]) was 89 mmHg. For the same molecule, the AUC(0-t) at 24 h [28] was 0.0445 µg·h/mL, the Activity (Rattus norvegicus [29]) was “Active” and the Tmax [30] was 0.65 h. The Vd/F [31] was 22.4 L, the Tmax [32] was 1 h and the Activity [33] was “Non-Toxic”. For the same molecule, the Cmax [34] was 0.109 µg/mL and the half-life [35] was 1.89 h.
